Source: patent US20260258050A1, “IMMUNOMODULATOR” (HITGEN INC., priority 2023, published 2026)
Blank lines part the entries; values can stand above or below the compound they belong to.

Legend:
[1] = target: T1, Human IL-17AF (Homo sapiens, UniProt Q16552+Q96PD4); assay: IL-17AF ELISA (competitive ELISA, IL-17AF/IL-17Ra receptor-ligand binding); details: human IL-17AF coated plate, human IL-17Ra, read-out: IC50, inhibitory activity of compounds on human IL-17AF
T1 construct: purchased Sino Biological Inc. CT047-H08H
T1 sequence (Q16552 24-155): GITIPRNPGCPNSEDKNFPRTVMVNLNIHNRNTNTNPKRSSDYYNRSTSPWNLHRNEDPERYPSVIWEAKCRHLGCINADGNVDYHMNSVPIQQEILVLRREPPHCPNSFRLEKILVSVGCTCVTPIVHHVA
T1 sequence (Q96PD4 31-163): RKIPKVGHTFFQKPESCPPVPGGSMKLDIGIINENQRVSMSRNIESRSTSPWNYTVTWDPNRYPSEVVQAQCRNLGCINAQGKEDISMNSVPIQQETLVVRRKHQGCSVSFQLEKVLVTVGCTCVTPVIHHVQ
Experimental: Experiment Example 2 IL-17AF ELISA
The inhibitory effects of human IL-17AF inhibitors on receptor-ligand binding were quantitatively determined by a competitive ELISA.
The ELISA was performed through the following steps.
Human IL-17AF (Sino Biological Inc., Cat #CT047-H08H) was diluted with coating buffer (50 mM PBS, pH 7.4) to reach a concentration of 0.625 μg/ml. 100 μL of the resulting solution was added to each well of a 96-well plate, and the plate was incubated at 37° C. for 30 min. In the blank group, 100 μL of coating buffer was added instead of the IL-17AF solution.
The plate was washed four times with 10 mM PBST (pH 7.4). 200 μL was used per well for each wash. After the final wash, the plate was tapped dry on absorbent paper.
Fresh 5% (w/v) skim milk solution was prepared before the experiment. For example, 5 grams of skim milk powder (Bio-Rad, Cat #170-6404) was completely dissolved in 100 mL of 10 mM PBST. 200 μL of the 5% (w/v) skim milk solution was added to each well, and the plate was incubated on a shaker at 25° C. for 30 min.
(S4) Preparation of 100× to-be-Tested Compound Solutions
During step (S3), the to-be-tested compound solutions were prepared. Each powdered compound was dissolved in dimethyl sulfoxide (DMSO) to reach a stock concentration of 10 mM. The to-be-tested compound solutions were then serially diluted four-fold with DMSO to obtain nine concentrations ranging from […].
(S6) Pre-Incubation of IL-17AF with to-be-Tested Compound Solutions
89 μL of PBST and 1 μL of each of the to-be-tested compound solutions were added to each well and mixed. The plate was pre-incubated at 25° C. for 10 min. In the blank group and the control group, 1 μL of DMSO was added instead of the to-be-tested compound solutions.
(S7) Incubation with Human IL-17Ra
10 μL of 100 nM IL-17Ra (Sino Biological Inc., Cat #10895-H03H) was added to each well, followed by incubation on a shaker at 25° C. for 30 min. The receptor solution was prepared in 10 mM PBST.
(S9) Incubation with Horseradish Peroxidase-Conjugated Antibody
100 μL of mouse anti-Fc tag HRP-conjugated antibody (Sino Biological Inc., Cat #10702-MM01T-H) was added to each well. The plate was incubated on a shaker at 25° C. for 30 min. The antibody was diluted with 5% (w/v) skim milk solution at 1:5,000 (v/v).
100 μL of TMB substrate solution (BD, Cat #555214) was added to each well. Substrate A and substrate B were freshly mixed at a volume ratio of 1:1 before use. The plate was incubated in the dark at 25° C. for 5-15 min.
(S12) Termination and Detection
The color reaction was terminated by addition of 2.5 M HCl. Absorbance was measured at 450 nm using a BMG PHERStar microplate reader.
(S13) Calculation of Half-Maximal Inhibitory Concentration (IC50)
The relative percent residual activity at each compound concentration was calculated according to Equation 1. The IC50 value of each test compound was then calculated in GraphPad 6 using the equation for log(inhibitor) versus normalized response with variable slope, as shown in Equation 2.
relative percent residual activity (%)=[(absorbance of sample−absorbance of blank group)/(absorbance of control group−absorbance of blank group)]%. Equation 1: […]
The compounds prepared in the Examples were tested for IL-17AF inhibitory activity according to the above method.

[2] = target: T2, Human IL-17A (Homo sapiens, UniProt Q16552); assay: IL-17A enzyme-linked immunosorbent assay (competitive ELISA, IL-17A/IL-17Ra receptor-ligand binding); parameters: purchased Sino Biological Inc. 12047-H07B; details: human IL-17A coated plate, human IL-17Ra, read-out: IC50, inhibitory activity of compounds on human IL-17A
T2 sequence (Q16552 20-155 limits assumed): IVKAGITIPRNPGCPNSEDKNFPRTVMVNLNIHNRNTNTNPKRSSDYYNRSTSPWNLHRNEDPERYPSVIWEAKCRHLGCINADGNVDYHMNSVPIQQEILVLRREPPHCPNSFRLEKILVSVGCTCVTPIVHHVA
How it was run: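 Competitive ELISA with plates coated with human IL-17A at 0.2 μg/ml, blocked with 5% skim milk. Compound pre-incubated with IL-17A 10 min at 25 °C, then 16 nM IL-17Ra stock added for 30 min. Bound receptor detected by anti-Fc HRP/TMB, A450. IC50 from variable-slope fit of blank-corrected residual activity.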

[3] = target: T2, Human IL-17A; assay: Inhibition of human IL-17A protein-induced GROα/CXCL1 production in HT-29 cells; format: cell-based; parameters: purchased R&D 317-ILB; host or cells: added exogenously to HT-29 cells; details: 30 ng/mL human IL-17A protein, 48 h, GROα in supernatant by ELISA kit, read-out: Inhibitory IC50 of compounds on HT-29 cell GROα/CXCL1
Experimental: Experiment Example 3 Inhibition of Human IL-17A Protein-Induced GROα/CXCL1 Production in HT-29 Cells by Compounds
This assay was conducted to evaluate the ability of the compounds to inhibit human IL-17A protein-induced production of the chemokine growth-regulated oncogene alpha/C-X-C motif chemokine ligand 1 (GROα/CXCL1) in HT-29 cells.
Human colorectal adenocarcinoma epithelial HT-29 cells (Chengdu Zhongyuan Gongchuang Technology Co., Ltd.) were seeded into a 96-well plate at a density of 5×10^4 cells per well and were cultured overnight in an incubator at 37° C.
30 ng/mL of human IL-17A protein (R&D, #317-ILB) was mixed with gradient concentrations of the IL-17A small-molecule inhibitor, or with […] of a positive control IL-17A antibody (R&D, #AF-317-NA). These mixtures were incubated at 37° C. for 1 h and were then added to the plate. The mixtures were co-incubated with the HT-29 cells at 37° C. for 48 h. Thereafter, the level of GROα in the cell culture supernatant was determined using a GROα ELISA kit (Cisbio, #62HCXC1PEG).
The inhibitory activity of each compound was expressed as the half-maximal inhibitory concentration (IC50) for inhibition of GROα/CXCL1 production in HT-29 cells.

SMILES: Cc1[nH]nc2c1-c1cc(F)c(NC(=O)[C@@H](NC(=O)c3ccnn3CCN3CCOCC3)C(C3CC3)C3CC3)cc1COCC2 [compound 97]
IC50 [1]: 100 to 500 nM
IC50 [2]: 50 to 150 nM

SMILES: Cc1[nH]nc2c1-c1ccc(NC(=O)[C@@H](NC(=O)c3ccnn3C)C(C3CC3)C3CC3)cc1CN(C)CC2 [compound 26]
IC50 [1]: 100 to 500 nM
IC50 [2]: 50 to 150 nM

SMILES: Cc1[nH]nc2c1-c1cc(F)c(NC(=O)[C@@H](NC(=O)c3ccnn3CC(C)(C)F)C(C3CC3)C3CC3)cc1COCC2 [compound 82]
IC50 [1]: 100 to 500 nM
IC50 [2]: 50 to 150 nM

SMILES: Cc1[nH]nc2c1-c1cc(F)c(NC(=O)[C@@H](NC(=O)c3ccnn3C)C(C3CC3)C3CC3)cc1CN(C)C(=O)C2 [compound 134]
IC50 [1]: 100 to 500 nM
IC50 [2]: 50 to 150 nM

SMILES: [2H]C([2H])([2H])n1nccc1C(=O)N[C@H](C(=O)Nc1ccc2c(c1)COCCc1n[nH]c(C)c1-2)C(C1CC1)C1CC1 [compound 7]
IC50 [1]: 100 to 500 nM
IC50 [2]: 50 to 150 nM

SMILES: COCCN1Cc2cc(NC(=O)[C@@H](NC(=O)c3ccnn3C3CC3)C(C3CC3)C3CC3)c(F)cc2-c2c(n[nH]c2C)CC1=O [compound 139]
IC50 [1]: 100 to 500 nM

SMILES: CCn1nccc1C(=O)N[C@H](C(=O)Nc1ccc2c(c1)COCCc1n[nH]c(C)c1-2)C1CCCCC1 [compound 8]
IC50 [1]: 100 to 500 nM
IC50 [2]: 50 to 150 nM

SMILES: Cc1[nH]nc2c1-c1cc(F)c(NC(=O)[C@@H](NC(=O)c3ccnn3C(C)C)C(C3CC3)C3CC3)cc1CN(C(C)C)CC2 [compound 162]
IC50 [1]: 100 to 500 nM
IC50 [2]: 50 to 150 nM

SMILES: Cc1[nH]nc2c1-c1cc(F)c(NC(=O)[C@@H](NC(=O)c3ccnn3C(C)C)C(C3CC3)C3CC3)cc1CN(Cc1ccccc1)CC2 [compound 185]
IC50 [1]: 100 to 500 nM

SMILES: CCc1nocc1C(=O)N[C@H](C(=O)Nc1cc2c(cc1F)-c1c(n[nH]c1C)CCOC2)C(C1CC1)C1CC1 [compound 33]
IC50 [1]: ≤ 100 nM
IC50 [2]: ≤ 50 nM

SMILES: Cc1[nH]nc2c1-c1cc(F)c(NC(=O)[C@@H](NC(=O)c3ccnn3CC3CC(F)(F)C3)C(C3CC3)C3CC3)cc1COCC2 [compound 64]
IC50 [3]: 100 to 500 nM
IC50 [2]: ≤ 50 nM

SMILES: Cc1[nH]nc2c1-c1cc(F)c(NC(=O)[C@@H](NC(=O)c3ccnn3CCCN3CCOCC3)C(C3CC3)C3CC3)cc1COCC2 [compound 92]
IC50 [3]: ≤ 100 nM
IC50 [2]: ≤ 50 nM

SMILES: Cc1[nH]nc2c1-c1cc(F)c(NC(=O)[C@@H](NC(=O)c3ccnn3CCCF)C(C3CC3)C3CC3)cc1CN(CC(F)F)C(=O)C2 [compound 172]
IC50 [3]: ≤ 100 nM
IC50 [2]: ≤ 50 nM

SMILES: Cc1[nH]nc2c1-c1cc(F)c(NC(=O)[C@@H](NC(=O)c3ccnn3CCCF)C(C3CC3)C3CC3)cc1CN(CC(F)F)CC2 [compound 181]
IC50 [3]: ≤ 100 nM
IC50 [2]: ≤ 50 nM

SMILES: CCC(C)n1nccc1C(=O)N[C@H](C(=O)Nc1cc2c(cc1F)-c1c(n[nH]c1C)CCOC2)C(C1CC1)C1CC1 (single isomer, unassigned) [compound 123a]
IC50 [3]: 100 to 500 nM
IC50 [2]: ≤ 50 nM

SMILES: C=C(F)C(=O)N[C@H](C(=O)Nc1cc2c(cc1F)-c1c(n[nH]c1C)CCOC2)C(C1CC1)C1CC1 [compound 233]
IC50 [3]: ≤ 100 nM
IC50 [2]: ≤ 50 nM

SMILES: Cc1[nH]nc2c1-c1cnc(NC(=O)[C@@H](NC(=O)c3ccnn3C(C)C)C(C3CC3)C3CC3)cc1CN(Cc1ccccc1)CC2 [compound 184]
IC50 [1]: 100 to 500 nM

More lines, now with the values ahead:

IC50 [1]: 100 to 500 nM
IC50 [2]: ≤ 50 nM
SMILES: Cc1[nH]nc2c1-c1cc(F)c(NC(=O)[C@@H](NC(=O)c3ccnn3CC(F)(F)F)C(C3CC3)C3CC3)cc1COCC2 [compound 94]

IC50 [1]: 100 to 500 nM
IC50 [2]: ≤ 50 nM
SMILES: CCn1nccc1C(=O)N[C@H](C(=O)Nc1cc2c(cc1F)-c1c(n[nH]c1C)CC(C)OC2)C(C1CC1)C1CC1 (single isomer, unassigned) [compound 119b]

IC50 [1]: 100 to 500 nM
IC50 [2]: ≤ 50 nM
SMILES: Cc1[nH]nc2c1-c1cc(F)c(NC(=O)[C@@H](NC(=O)c3ccnn3C3CC3)C(C3CC3)C3CC3)cc1COCC2 [compound 19]

IC50 [1]: 100 to 500 nM
IC50 [2]: ≤ 50 nM
SMILES: CCn1nccc1C(=O)N[C@H](C(=O)Nc1cc2c(cc1F)-c1c(n[nH]c1C)CC(C)OC2)C(C1CC1)C1CC1 (single isomer, unassigned) [compound 119a]

IC50 [1]: 100 to 500 nM
IC50 [2]: ≤ 50 nM
SMILES: Cc1[nH]nc2c1-c1cc(F)c(NC(=O)[C@@H](NC(=O)c3ccnn3C(C)C)C(C3CC3)C3CC3)cc1CN(C)CC2 [compound 154]

IC50 [1]: ≤ 100 nM
IC50 [2]: ≤ 50 nM
SMILES: Cc1[nH]nc2c1-c1cc(F)c(NC(=O)[C@@H](NC(=O)c3conc3C3CC3)C(C3CC3)C3CC3)cc1COCC2 [compound 34]

IC50 [1]: 100 to 500 nM
IC50 [2]: ≤ 50 nM
SMILES: CCn1nccc1C(=O)N[C@H](C(=O)Nc1cc2c(cc1F)-c1c(n[nH]c1C)CC(C)(C)OC2)C(C1CC1)C1CC1 [compound 117]

IC50 [3]: 100 to 500 nM
IC50 [2]: ≤ 50 nM
SMILES: Cc1[nH]nc2c1-c1cc(F)c(NC(=O)[C@@H](NC(=O)c3ccnn3C(C)C)[C@H]3CC[C@H](C)CC3)cc1COCC2 [compound 45]

IC50 [3]: ≤ 100 nM
IC50 [2]: ≤ 50 nM
SMILES: Cc1[nH]nc2c1-c1cc(F)c(NC(=O)[C@@H](NC(=O)c3conc3C(C)C)C(C3CC3)C3CC3)cc1CN(CC(F)F)CC2 [compound 180]

IC50 [1]: 100 to 500 nM
IC50 [2]: ≤ 50 nM
SMILES: CCn1nccc1C(=O)N[C@H](C(=O)Nc1ccc2c(c1)COCCc1n[nH]c(C)c1-2)C1c2ccc(F)cc2OCC12CC2 (some centres unmarked) [compound 9]

IC50 [1]: 100 to 500 nM
IC50 [2]: ≤ 50 nM
SMILES: Cc1[nH]nc2c1-c1cc(F)c(NC(=O)[C@@H](NC(=O)c3ccc(C#N)n3C)C(C3CC3)C3CC3)cc1COCC2 [compound 227]
